Assay results reported in publication PMC9848351, “Discovery of new pyridine-quinoline hybrids as competitive and non-competitive PIM-1 kinase inhibitors with apoptosis induction and caspase 3/7 activation capabilities” (Journal of Enzyme Inhibition and Medicinal Chemistry, 2023).

Key:
[1] = tested on: myeloid leukaemia cell line (NFS-60); assay: MTT anticancer activity, NFS-60; assay type: cell-based; details: for IC50: NFS-60, 72 h, MTT, mean ± SEM; for activity against NFS-60 compared to the reference: fold versus doxorubicin IC50
Method in brief: (§1)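 Cells seeded at 5x10^3/well (Caco-2 in DMEM, others in RPMI-1640, 10% FBS) and exposed to serial compound concentrations for 72 h at 37 °C, 5% CO2, starting 24 h after seeding. MTT (3 h, 37 °C) read at 570 nm after DMSO solubilisation; IC50 calculated from viability.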

[2] = tested on: HepG-2; assay: Flow cytometric annexin V/PI analysis of apoptosis, HepG-2; assay type: cell-based, human; details: IC50 of compound, 72 h, mean ± SEM
[3] = tested on: Caco-2; assay: Flow cytometric annexin V/PI analysis of apoptosis, Caco-2; assay type: cell-based; details: IC50 of compound, 72 h, mean ± SEM
Description: The apoptosis-dependent […] was determined by quantification of annexin-stained apoptotic cells using the FITC signal detector (FL1) against the phycoerythrin emission signal detector (FL2) (Supplementary Page S55). […]
MTT method was used for assaying cell viability 25. Twenty microliters of 5 mg/ml MTT (Sigma, USA) was added to each well and the plate was incubated at 37 °C for 3 h. Then MTT solution was removed, 100 µl DMSO was used and the absorbance of each well was measured with a microplate reader ( BMG LabTech, […]
Germany) at 570 nm. […]
Graphpad Instat software.
Determination of the anticancer activity
Anticancer effect of the above-mentioned compounds was evaluated using four human […]
cancer cell lines. […]
All cancer cells (5x10^3 cells/well) were seeded in sterile
96-well plates. After 24h, serial concentrations of the tested compounds and Dox were incubated with four cancer cell lines for 72 h at 37 °C in 5% CO2 incubator. MTT method was done as described above. The Graphpad Instat software was used for calculating the half maximal inhibitory concentration (IC50) values. […]
Flow cytometric analysis of apoptosis
Caco-2, PC-3 and NFS-60 cell lines. After trypsinization, the untreated and treated cells were incubated with annexin V/PI for 15 min. Then cells were fixed and incubated with streptavidin-fluorescein (5 µg/mL) for 15 min. The apoptosis-dependent anticancer effect was determined by quantification of annexin-stained apoptotic cells using the FITC signal detector (FL1) against the phycoerythrin emission signal detector (FL2). […]

[4] = tested on: liver cancer cell line (HepG-2); assay: MTT anticancer activity, HepG-2; assay type: cell-based, human; details: for IC50: Homo sapiens, HepG2, HepG-2, 72 h, MTT, mean ± SEM; for activity against HepG-2 compared to the reference: fold versus doxorubicin IC50
Method in brief: as §1

[5] = biological target: PIM-1 kinase (Homo sapiens, UniProt P11309); assay: PIM-1 kinase inhibitory activity (Promega kinase assay kit)
Description: (§2) PIM-1 and PIM-2 kinase inhibitory activity
(§3) PIM-1 and PIM-2 kinase utilizing PIM-1 and PIM-2 Kinase Assay Kit – Promega Corporation catalog #V4032, following the manufacturer’s instructions 26

[6] = tested on: normal human lung fibroblast Wi-38 cell line; assay: MTT cytotoxicity on normal cells; assay type: cell-based; details: for EC50 / IC50: Homo sapiens; for EC50 / Wi-38 EC100: Wi-38, 72 h, MTT, mean ± SEM; for EC50: 50% cell viability; for Wi-38 EC100: safe dose, 100% cell viability; for IC50: Wi-38, MTT, read-out: IC50 on human lung fibroblasts (Wi-38)
Method in brief: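 Wi-38 fibroblasts in DMEM with 10% FBS were seeded at 5x10^3 cells/well, left 24 h to attach, then exposed to serial compound concentrations for 72 h at 37 °C, 5% CO2. MTT was added for 3 h, formazan dissolved in DMSO and absorbance read at 570 nm. IC50 and EC100 (safe dose) were estimated from the concentration series.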

[7] = biological target: PIM-2 kinase (Homo sapiens, UniProt Q9P1W9); assay: PIM-2 kinase inhibitory activity (Promega kinase assay kit)
Chain of PIM-2 kinase (Q9P1W9 whole entry): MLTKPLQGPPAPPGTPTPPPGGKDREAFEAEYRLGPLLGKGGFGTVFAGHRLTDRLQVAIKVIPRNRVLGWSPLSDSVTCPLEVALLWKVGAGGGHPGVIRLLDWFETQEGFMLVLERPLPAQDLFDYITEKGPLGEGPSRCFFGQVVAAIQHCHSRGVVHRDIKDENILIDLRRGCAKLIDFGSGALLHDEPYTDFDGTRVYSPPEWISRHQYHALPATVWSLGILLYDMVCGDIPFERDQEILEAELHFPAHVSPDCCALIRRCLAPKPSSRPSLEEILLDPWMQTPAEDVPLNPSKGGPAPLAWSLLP
Description: as §2, §3

Chain of PIM-1 kinase (P11309 whole entry): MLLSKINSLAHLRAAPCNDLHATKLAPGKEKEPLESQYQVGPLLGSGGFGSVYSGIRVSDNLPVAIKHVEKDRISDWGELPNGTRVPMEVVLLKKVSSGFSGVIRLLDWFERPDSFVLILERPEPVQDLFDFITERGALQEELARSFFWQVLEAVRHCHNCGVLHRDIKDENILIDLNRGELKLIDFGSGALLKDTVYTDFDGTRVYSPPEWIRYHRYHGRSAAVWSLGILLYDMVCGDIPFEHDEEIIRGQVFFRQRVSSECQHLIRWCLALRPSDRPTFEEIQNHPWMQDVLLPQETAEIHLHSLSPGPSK

| SMILES | IC50 [1] [nM] | IC50 [4] [nM] | IC50 [5] [nM] | IC50 [7] [nM] | activity against NFS-60 compared to the reference [1] | total percentage of the apoptotic cell population, HepG-2 [2] [%] | total percentage of the apoptotic cell population, Caco-2 [3] [%] | activity against HepG-2 compared to the reference [4] | EC50 [6] [nM] | Wi-38 EC100 [6] [µM] | IC50 [6] [nM] |
| --- | --- | --- | --- | --- | --- | --- | --- | --- | --- | --- | --- |
| N#Cc1c(-c2cc3ccccc3[nH]c2=O)cc(-c2cccc(O)c2)nc1S [14a, 6-(3-Hydroxyphenyl)-2-mercapto-4-(2-oxo-1,2-dihydroquinolin-3-yl)pyridine-3-carbonitrile] | 23.2 | 12.7 | 385 | – | – | 42.155 ± 0.16 | 42.17 ± 0.82 | – | 299 ± 4 | 0.134 ± 0.003 | – |
| COc1ccc2nc(N3CCOCC3)c(-c3cc(-c4cccc(O)c4)[nH]c(=O)c3C#N)cc2c1 [5c, 6-(3-Hydroxyphenyl)-4-(6-methoxy-2-morpholin-4-yl-quinolin-3-yl)-2-oxo-1,2-dihydropyridine-3-carbonitrile] | 18.1 ± 1 | 7.6 ± 0.1 | – | 1660 | – | 54.14 ± 0.42 | 33.89 ± 0.175 | – | 717 ± 2 | 0.361 ± 0.014 | > 99 |

These reach a lower IC50 [1]. Values come first.

| IC50 [1] [nM] | IC50 [4] [nM] | IC50 [5] [nM] | IC50 [7] [nM] | SMILES | activity against NFS-60 compared to the reference [1] | total percentage of the apoptotic cell population, HepG-2 [2] [%] | total percentage of the apoptotic cell population, Caco-2 [3] [%] | activity against HepG-2 compared to the reference [4] | EC50 [6] [nM] | Wi-38 EC100 [6] [µM] | IC50 [6] [nM] |
| --- | --- | --- | --- | --- | --- | --- | --- | --- | --- | --- | --- |
| 8.8 ± 0.1 | 3.77 ± 0.1 | 7780 | – | COc1ccc2[nH]c(=O)c(-c3cc(-c4cccc(O)c4)[nH]c(=O)c3C#N)cc2c1 [13c, 6-(3-Hydroxyphenyl)-4-(6-methoxy-2-oxo-1,2-dihydroquinolin-3-yl)-2-oxo-1,2-dihydropyridine-3-carbonitrile] | three-fold high | 66.83 ± 1.32 | 51.17 ± 0.33 | thirteen-fold high | 34.8 ± 3 | 0.0242 ± 0.001 | – |
| 9 | 2.38 | 1270 | – | N#Cc1c(-c2cc3ccccc3[nH]c2=O)cc(-c2cccc(O)c2)[nH]c1=O [13a, 6-(3-Hydroxyphenyl)-2-oxo-4-(2-oxo-1,2-dihydroquinolin-3-yl)-1,2-dihydropyridine-3-carbonitrile] | three-fold | 70.59 ± 1.07 | 58.28 ± 0.26 | twenty-one-fold more active | 25.5 ± 4 | 0.0145 ± 0.0001 | – |
| 9.32 ± 4 | 5.28 ± 0.1 | – | 670 | N#Cc1c(-c2cc3cc(Cl)ccc3nc2N2CCOCC2)cc(-c2cccc(O)c2)[nH]c1=O [5b, 4-(6-Chloro-2-morpholin-4-yl-quinolin-3-yl)-6-(3-hydroxyphenyl)-2-oxo-1,2-dihydropyridine-3-carbonitrile] | – | 58.9 ± 0.88 | 44.045 ± 0.185 | – | 171 ± 2 | 0.048 ± 0.0001 | > 99 |
